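Cells were grown in 96-well plates and exposed to each compound for 48 hours at five concentrations; endpoints were interpolated linearly between bracketing concentrations, or set to the highest concentration if not reached. At the GI50, growth is halved. At the TGI there is no net growth.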
Tests used:
Experiment in all cases: growth of human tumour cells (NCI), 48 h
[1] = tested on: ACHN renal
[2] = tested on: CCRF-CEM leukemia
[3] = tested on: HS 578T breast
[4] = tested on: DU-145 prostate
[5] = tested on: MDA-MB-435
[6] = tested on: OVCAR-4 ovarian
[7] = tested on: OVCAR-5 ovarian
[8] = tested on: SF-268 CNS
[9] = tested on: UACC-257 melanoma
[10] = tested on: HOP-92 NSCLC
[11] = tested on: SN12C renal
[12] = tested on: IGROV1 ovarian
[13] = tested on: CAKI-1 renal
[14] = tested on: MOLT-4 leukemia
[15] = tested on: BT-549 breast
[16] = tested on: U251 CNS
[17] = tested on: SK-OV-3 ovarian
[18] = tested on: A498 renal
[19] = tested on: TK-10 renal
[20] = tested on: UACC-62 melanoma
[21] = tested on: NCI-H460 lung
[22] = tested on: SNB-75 CNS
[23] = tested on: A549 NSCLC
[24] = tested on: HCC-2998 colon
[25] = tested on: KM12 colon
[26] = tested on: NCI/ADR-RES ovarian
[27] = tested on: SW-620 colon
[28] = tested on: OVCAR-8 ovarian
[29] = tested on: MDA-MB-231 breast
[30] = tested on: SF-295 CNS
[31] = tested on: NCI-H226 lung
[32] = tested on: SK-MEL-2 melanoma
[33] = tested on: MCF7 breast
[34] = tested on: SF-539 CNS
[35] = tested on: HCT-15 colon
[36] = tested on: RPMI-8226 leukemia
[37] = tested on: EKVX NSCLC
[38] = tested on: HCT-116 colon
[39] = tested on: MALME-3M melanoma
[40] = tested on: NCI-H522 lung
[41] = tested on: HL-60(TB) leukemia
[42] = tested on: K-562 leukemia
[43] = tested on: HT29 colon
[44] = tested on: OVCAR-3 ovarian
[45] = tested on: PC-3 prostate
[46] = tested on: M14 melanoma
[47] = tested on: T-47D breast
[48] = tested on: UO-31 renal
[49] = tested on: COLO 205 colon
[50] = tested on: RXF 393 renal
[51] = tested on: SK-MEL-5 melanoma
[52] = tested on: SK-MEL-28 melanoma
[53] = tested on: SNB-19 CNS
[54] = tested on: LOX IMVI melanoma
[55] = tested on: 786-0 renal
[56] = tested on: HOP-62 NSCLC

## N#Cc1c(N)nc(N2CCOCC2)c(C#N)c1-c1c(Cl)cccc1Cl
[1]
  GI50: 13.4 µM
  TGI: 44.5 µM
[2]
  GI50: 4.91 µM
  TGI: 46.6 µM
[3]
  GI50: 5.07 µM
  TGI: 63.9 µM
[4]
  GI50: 16.9 µM
  TGI: > 100 µM
[5]
  GI50: 1.57 µM
  TGI: 3.8 µM
[6]
  GI50: 13.1 µM
  TGI: > 100 µM
[7]
  GI50: 6.27 µM
  TGI: 35.3 µM
[8]
  GI50: 11.3 µM
  TGI: > 100 µM
[9]
  GI50: 5.16 µM
  TGI: 30.4 µM
[10]
  GI50: 4.68 µM
  TGI: 46 µM
[11]
  GI50: 6.17 µM
  TGI: 33.2 µM
[12]
  GI50: 1.98 µM
  TGI: 5.08 µM
[13]
  GI50: 2.24 µM
  TGI: 12.2 µM
[14]
  GI50: 5.1 µM
  TGI: 86.5 µM
[15]
  GI50: 7 µM
  TGI: 79.7 µM
[16]
  GI50: 3.89 µM
  TGI: 18.5 µM
[17]
  GI50: 4.09 µM
  TGI: 21 µM
[18]
  GI50: 3.75 µM
  TGI: 23.1 µM
[19]
  GI50: 20.9 µM
  TGI: > 100 µM
[20]
  GI50: 3.87 µM
  TGI: 19.7 µM
[21]
  GI50: 6.39 µM
  TGI: 44.6 µM
[22]
  GI50: 1.75 µM
  TGI: 9.66 µM
[23]
  GI50: 10.3 µM
  TGI: 95.6 µM
[24]
  GI50: 0.0181 µM
  TGI: 2.48 µM
[25]
  GI50: 6.42 µM
  TGI: 77.8 µM
[26]
  GI50: 2.34 µM
  TGI: 7.46 µM
[27]
  GI50: 5.16 µM
  TGI: > 100 µM
[28]
  GI50: 14.2 µM
  TGI: 63.2 µM
[29]
  GI50: 3.57 µM
  TGI: 15.4 µM
[30]
  GI50: 4.4 µM
  TGI: 43.2 µM
[31]
  GI50: 15.2 µM
  TGI: 73.8 µM
[32]
  GI50: 6.31 µM
  TGI: 93.2 µM
[33]
  GI50: 2.92 µM
  TGI: 16.4 µM
[34]
  GI50: 12.2 µM
  TGI: 49.8 µM
[35]
  GI50: 4.04 µM
  TGI: 25.8 µM
[36]
  GI50: 4.41 µM
  TGI: 47.5 µM
[37]
  GI50: 7.92 µM
  TGI: > 100 µM
[38]
  GI50: 3.07 µM
  TGI: 12.2 µM
[39]
  GI50: 3.72 µM
  TGI: 13.5 µM
[40]
  GI50: 2.36 µM
  TGI: 8.38 µM
[41]
  GI50: 4.75 µM
  TGI: 20.9 µM
[42]
  GI50: 3.3 µM
  TGI: 11.7 µM
[43]
  GI50: 3.33 µM
  TGI: 17.4 µM
[44]
  GI50: 2.4 µM
  TGI: 6.37 µM
[45]
  GI50: 5.64 µM
  TGI: 31.1 µM
[46]
  GI50: 2.47 µM
  TGI: 7.42 µM
[47]
  GI50: 3.43 µM
  TGI: 10.1 µM
[48]
  GI50: 7.79 µM
  TGI: 44.1 µM
[49]
  GI50: 7.14 µM
  TGI: 22.8 µM
[50]
  GI50: 4.58 µM
  TGI: 28.3 µM
[51]
  GI50: 7.27 µM
  TGI: 21 µM
[52]
  GI50: 7.38 µM
  TGI: 56 µM
[53]
  GI50: 6.09 µM
  TGI: 25.6 µM
[54]
  GI50: 5.88 µM
  TGI: 24 µM
[55]
  GI50: 12.9 µM
  TGI: 36.7 µM
[56]
  GI50: 3.52 µM
  TGI: 17.8 µM
